The source of these data is PubChem BioAssay (NCI).

Some test systems named below: COLO 205 colon; DU-145 prostate; HCT-15 colon; HOP-62 NSCLC; HT29 colon; NCI/ADR-RES ovarian; OVCAR-4 ovarian; OVCAR-8 ovarian; SK-MEL-2 melanoma; UO-31 renal.
What all share (assay): growth of human tumour cells (NCI), 48 h

Where “and” joins values, the source holds several entries; their conditions need not be identical. Equal values may be shown once.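 Values below derive from 48-hour exposures of cells grown in 96-well plates, with endpoints linearly interpolated between the two concentrations bracketing the appropriate inhibition level. At the GI50, growth is halved. TGI marks complete inhibition of growth.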

As to `O=C1COCCN1c1ccc(NCc2cn(C(=O)c3ccc(Cl)cc3)c3ccccc23)cc1`, the GI50 in the assay with COLO 205 colon is 3.28 µM; with DU-145 prostate it was 8.76 µM; in the assay on HCT-15 colon, 4.07 µM; in the assay on HOP-62 NSCLC it was 1.06 µM; with HT29 colon, 3.79 µM; with NCI/ADR-RES ovarian, 5.77 µM. For the same molecule, the GI50 in the assay on OVCAR-4 ovarian was 0.494 µM; in the assay on OVCAR-8 ovarian, 5.04 µM; with SK-MEL-2 melanoma, 2.19 µM; in the assay with UO-31 renal, 2.09 µM. Further, the TGI in the assay on COLO 205 colon is 21.8 µM; in the assay with DU-145 prostate, above 100 µM; in the assay on HCT-15 colon, 91.2 µM; with HOP-62 NSCLC, above 100 µM; with HT29 colon it was above 100 µM; in the assay with NCI/ADR-RES ovarian, 55.8 µM. Moreover, the TGI in the assay on OVCAR-4 ovarian was 18.8 µM; in the assay with OVCAR-8 ovarian it was above 100 µM; with SK-MEL-2 melanoma, 15.3 µM; in the assay with UO-31 renal, 16.5 µM.
Regarding `CC(=O)n1c(-c2ccc(Cl)c(Cl)c2)cn(-c2ccc(Cl)cc2)c1=O`, the GI50 was 53 µM in the assay with COLO 205 colon; 17.4 µM with DU-145 prostate; 63.7 µM with HCT-15 colon; 20.4 µM with HOP-62 NSCLC; 57.7 µM in the assay with HT29 colon; 35.2 µM in the assay with NCI/ADR-RES ovarian. In addition, the GI50 in the assay with OVCAR-4 ovarian was 20 µM; with OVCAR-8 ovarian, 23.1 µM; in the assay with SK-MEL-2 melanoma, 22.4 µM; in the assay with UO-31 renal it was 24.7 µM. The TGI was above 100 µM with COLO 205 colon; 45.8 µM in the assay on DU-145 prostate; above 100 µM in the assay on HCT-15 colon; 43.8 µM in the assay with HOP-62 NSCLC; above 100 µM in the assay on HT29 colon; above 100 µM in the assay on NCI/ADR-RES ovarian. Moreover, the TGI turned out to be 57.7 µM with OVCAR-4 ovarian, 76.5 µM with OVCAR-8 ovarian, 69.2 µM in the assay on SK-MEL-2 melanoma and 51.4 µM in the assay on UO-31 renal.
Regarding `CC(C)=CCc1cc(C2COc3cc4c(c(O)c3C2=O)C=CC(C)(C)O4)c(O)cc1O` (configuration not stated), the TGI in the assay on COLO 205 colon turned out to be 49.9 µM; in the assay with DU-145 prostate it was 27.9 µM; in the assay on HCT-15 colon, 26.9 µM; in the assay with HOP-62 NSCLC, 32.3 µM; in the assay on HT29 colon it was 31.6 µM; in the assay on NCI/ADR-RES ovarian it was 79.4 µM. Also, the TGI in the assay with OVCAR-4 ovarian worked out at 24.2 µM; with OVCAR-8 ovarian it was 51.2 µM; in the assay on SK-MEL-2 melanoma it was 31.7 µM; in the assay with UO-31 renal, 26 µM.
Regarding `COc1ccc2c(c1OC)C(=O)O[C@@H]2[C@H]1c2c(c(Br)c3c(c2OC)OCO3)CCN1C`, the GI50 is 27.1 µM in the assay with COLO 205 colon; above 100 µM in the assay with DU-145 prostate; 4.67 µM with HCT-15 colon; 6.47 µM in the assay with HOP-62 NSCLC; 47 µM in the assay on HT29 colon; 9.22 µM in the assay with NCI/ADR-RES ovarian. Besides, the GI50 was above 100 µM in the assay with OVCAR-4 ovarian, 32.4 µM with OVCAR-8 ovarian, above 100 µM in the assay on SK-MEL-2 melanoma and above 100 µM in the assay with UO-31 renal. Also, the TGI was above 100 µM in the assay with COLO 205 colon; above 100 µM in the assay with DU-145 prostate; above 100 µM in the assay on HCT-15 colon; 91.2 µM in the assay with HOP-62 NSCLC; above 100 µM in the assay on HT29 colon; above 100 µM in the assay on NCI/ADR-RES ovarian. Also, the TGI in the assay with OVCAR-4 ovarian, with OVCAR-8 ovarian, in the assay with SK-MEL-2 melanoma and in the assay on UO-31 renal was above 100 µM each time.
For `COC(=O)Nc1nc2ccc(S(=O)(=O)c3ccc(NC(=O)Nc4cc(C(F)(F)F)ccc4F)cc3)cc2[nH]1`, the GI50 in the assay on COLO 205 colon, in the assay with DU-145 prostate, in the assay on HCT-15 colon, in the assay on HOP-62 NSCLC, in the assay on HT29 colon and in the assay with NCI/ADR-RES ovarian was above 25 µM throughout. Besides, the GI50 in the assay on OVCAR-4 ovarian, with OVCAR-8 ovarian, with SK-MEL-2 melanoma and with UO-31 renal was above 25 µM throughout. For the same molecule, the TGI in the assay with COLO 205 colon, in the assay with DU-145 prostate, in the assay with HCT-15 colon, in the assay with HOP-62 NSCLC, in the assay on HT29 colon and in the assay with NCI/ADR-RES ovarian was above 25 µM in each case. Moreover, the TGI in the assay with OVCAR-4 ovarian, in the assay on OVCAR-8 ovarian, in the assay with SK-MEL-2 melanoma and in the assay on UO-31 renal was above 25 µM throughout.
Regarding `c1ccc2c(CN3CCC(C4CCN(Cc5cccc6ccccc56)CC4)CC3)cccc2c1`, the TGI was 3.39 µM and 3.65 µM with COLO 205 colon; above 100 µM in the assay with DU-145 prostate; 16.6 µM and > 100 µM in the assay with HCT-15 colon; 21.4 µM and > 69.4 µM in the assay with HOP-62 NSCLC; 11.7 µM and 11.2 µM in the assay with HT29 colon; above 100 µM in the assay with NCI/ADR-RES ovarian. Moreover, the TGI in the assay with OVCAR-4 ovarian is 38.2 µM and > 100 µM; in the assay with OVCAR-8 ovarian, above 72.4 µM; in the assay on SK-MEL-2 melanoma, 15.2 µM and 37.1 µM; with UO-31 renal, 16.2 µM and > 100 µM. The GI50 in the assay with HCT-15 colon was 2.95 µM and 8.46 µM; in the assay with OVCAR-4 ovarian it was 13.6 µM and 35.9 µM; in the assay with OVCAR-8 ovarian, 21.8 µM and 6.98 µM; in the assay with UO-31 renal it was 3.84 µM and 29.4 µM.
Consider `CN(C)c1ncnc2c1ccn2C1OC(CO)C(O)C1O` (configuration not stated), for which the GI50 in the assay on COLO 205 colon was 18.8 µM; in the assay with DU-145 prostate, 0.386 µM; in the assay with HCT-15 colon, 1.1 µM; in the assay on HOP-62 NSCLC, 1.71 µM; with HT29 colon it was 1.47 µM; with NCI/ADR-RES ovarian, 1.3 µM. Moreover, the GI50 is 2.02 µM in the assay with OVCAR-4 ovarian, 0.89 µM in the assay with OVCAR-8 ovarian, above 100 µM with SK-MEL-2 melanoma and 1.37 µM in the assay with UO-31 renal. Further, the TGI with COLO 205 colon was above 100 µM; in the assay with DU-145 prostate, 2.94 µM; in the assay with HCT-15 colon, above 66.2 µM; with HOP-62 NSCLC, above 100 µM; in the assay with HT29 colon, above 100 µM; in the assay on NCI/ADR-RES ovarian it was above 30.1 µM. Moreover, the TGI in the assay with OVCAR-4 ovarian was 38.4 µM; in the assay with OVCAR-8 ovarian, 6.81 µM; with SK-MEL-2 melanoma, above 100 µM; with UO-31 renal it was 13.7 µM.
On to `COc1cc2c(cc1OCCCCCn1c3ccccc3c3ccccc31)N=C[C@@H]1CCCN1C2=O`, for which the GI50 is 2.11 µM in the assay on COLO 205 colon; 2.23 µM with DU-145 prostate; 1.67 µM in the assay on HCT-15 colon; 1.8 µM in the assay with HOP-62 NSCLC; 2.08 µM in the assay with HT29 colon; 2.14 µM in the assay on NCI/ADR-RES ovarian. The GI50 in the assay with OVCAR-4 ovarian was 3.09 µM; with OVCAR-8 ovarian, 2.56 µM; with SK-MEL-2 melanoma, 1.67 µM; in the assay on UO-31 renal, 1.52 µM. Further, the TGI was found to be 4.57 µM with COLO 205 colon; 4.67 µM in the assay on DU-145 prostate; 3.48 µM with HCT-15 colon; 3.91 µM in the assay on HOP-62 NSCLC; 5.29 µM with HT29 colon; 4.75 µM in the assay on NCI/ADR-RES ovarian. Besides, the TGI in the assay with OVCAR-4 ovarian is 12.6 µM; in the assay with OVCAR-8 ovarian, 7.17 µM; with SK-MEL-2 melanoma, 3.24 µM; in the assay on UO-31 renal it was 2.93 µM.
For `O=c1[nH]nc(-c2ccccc2)c2c(-c3ccccc3)onc12`, the GI50 in the assay with COLO 205 colon is 0.505 µM; in the assay on DU-145 prostate, 1.79 µM; in the assay with HCT-15 colon, 0.554 µM; in the assay with HT29 colon, 0.391 µM; in the assay with NCI/ADR-RES ovarian, 0.331 µM; in the assay on OVCAR-4 ovarian it was 2.4 µM. Also, the values for the GI50 in the assay with OVCAR-8 ovarian and in the assay with UO-31 renal were 0.812 µM and 0.592 µM, respectively. Moreover, the TGI in the assay on COLO 205 colon was 9.89 µM; in the assay on DU-145 prostate, 27.2 µM; in the assay on HCT-15 colon it was above 100 µM; with HOP-62 NSCLC it was above 100 µM; in the assay with HT29 colon, above 100 µM; with NCI/ADR-RES ovarian, above 100 µM. Also, the TGI in the assay with OVCAR-4 ovarian, in the assay on OVCAR-8 ovarian, in the assay on SK-MEL-2 melanoma and in the assay with UO-31 renal was above 100 µM throughout.
As for `COc1cc2nncc(SCc3ccc(Cl)c(Cl)c3)c2cc1OC`, the TGI with COLO 205 colon, in the assay with DU-145 prostate, in the assay on HCT-15 colon, with HOP-62 NSCLC, in the assay with HT29 colon and in the assay on NCI/ADR-RES ovarian was above 100 µM in each case. Also, the TGI in the assay on OVCAR-4 ovarian was above 91.9 µM; in the assay with OVCAR-8 ovarian it was above 100 µM; in the assay with SK-MEL-2 melanoma it was above 100 µM; with UO-31 renal, above 100 µM.
As for `NS(=O)(=O)c1ccc(N2N=C(c3cccs3)CC2c2ccccc2O)cc1` (configuration not stated), the GI50 with COLO 205 colon is 0.577 µM; with DU-145 prostate, 0.903 µM; in the assay on HCT-15 colon it was 1.35 µM; with HOP-62 NSCLC, 2.67 µM; in the assay with HT29 colon, 0.897 µM; with NCI/ADR-RES ovarian, 4.84 µM. Further, the GI50 was 2.88 µM in the assay with OVCAR-4 ovarian, 0.907 µM in the assay on OVCAR-8 ovarian, 1.2 µM in the assay with SK-MEL-2 melanoma and 4.01 µM in the assay on UO-31 renal. For the same molecule, the TGI in the assay with COLO 205 colon is 1.88 µM; in the assay with DU-145 prostate, 2.33 µM; with HCT-15 colon, above 33.3 µM; in the assay with HOP-62 NSCLC it was 9.46 µM; with HT29 colon it was 2.39 µM; in the assay with NCI/ADR-RES ovarian, 19 µM. In addition, the TGI is above 33.3 µM in the assay on OVCAR-4 ovarian, 2.78 µM in the assay with OVCAR-8 ovarian, 5.16 µM in the assay with SK-MEL-2 melanoma and 12.1 µM in the assay on UO-31 renal.
